The source of these data is paper PMC13366330 (Acta Pharmaceutica Sinica. B, 2025).

The structures appear in SMILES notation.

In one data set the test system is TAMs in tumor tissue. As to the kind of experiment: M2 polarization of TAMs in tumor tissue, flow cytometry. The data set is classed as in vivo, C57 mice. The note with it: 10 mg/kg, intraperitoneal.
Data set [1] can be described thus: Body and organ weights, organ H&E in the antitumor experiment. It is filed as in vivo, C57 mice. As to conditions: 100 mg/kg, intraperitoneal.

For the compound `C[C@H](NC(=O)c1c(N)nn2cccnc12)c1cc2cccc(C#Cc3cnn(C)c3)c2c(=O)n1-c1ccccc1` [IPI-549], the “percentage of M2 polarization in TAMs” value in the data set on TAMs in tumor tissue stood at 15.40%. Turning to `CN(C)/N=N/c1[nH]cnc1C(N)=O` [dacarbazine], in data set [1], the “liver H&E finding” value was “coagulative necrosis” and the spleen weight result is given as “significant decrease”.
